Test results published in ChEMBL document CHEMBL1201862, “PubChem BioAssay data set” (2004).
The source made the active and inactive calls.

Key:
[1] = HEK-293T viability loss after treatment – luminescence, T-cell screen hits, cytotoxicity control for TCR NF-kB inhibitor project, dose response (AID 489026); format: functional, cell-based;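 note: cells exposed to compound about 14 hours before the viability readout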
[2] = Luminescence Cell-Based Dose Retest to Confirm Inhibitors of Cancer Stem Cells. [Related pubchem assays (depositor defined):AID2717, AID2721]; format: functional; conditions: Homo sapiens
[3] = target: T1, Zinc finger protein mex-5 (Caenorhabditis elegans, UniProt Q9XUB2); test: potency of MEX-5 RNA-binding blockers – biochemical, C. elegans, fluorescence polarization, dose response (AID 1960)
T1 sequence (Q9XUB2 whole entry): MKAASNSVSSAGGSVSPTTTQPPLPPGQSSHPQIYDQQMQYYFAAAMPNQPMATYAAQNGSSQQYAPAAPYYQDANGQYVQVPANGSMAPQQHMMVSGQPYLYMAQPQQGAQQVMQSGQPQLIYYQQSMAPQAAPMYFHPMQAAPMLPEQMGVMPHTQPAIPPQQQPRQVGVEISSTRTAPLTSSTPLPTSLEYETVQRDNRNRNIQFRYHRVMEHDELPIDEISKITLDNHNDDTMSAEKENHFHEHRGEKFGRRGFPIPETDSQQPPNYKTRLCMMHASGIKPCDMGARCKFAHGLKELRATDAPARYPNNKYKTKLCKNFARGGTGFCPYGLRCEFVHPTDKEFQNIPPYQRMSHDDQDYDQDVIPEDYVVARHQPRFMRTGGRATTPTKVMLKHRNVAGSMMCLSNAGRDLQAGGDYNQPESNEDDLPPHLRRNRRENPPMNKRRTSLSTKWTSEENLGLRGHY

[4] = target: T2, RNA-binding protein pos-1 (Caenorhabditis elegans, UniProt G5EF15); test: disruptors of C. elegans POS-1 RNA interaction – biochemical, fluorescence polarization, dose response (AID 1964);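 note: purified POS-1 fused to maltose binding protein made in E. coli; potency of compounds blocking POS-1 binding to fluorescent RNA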
T2 sequence (G5EF15 whole entry): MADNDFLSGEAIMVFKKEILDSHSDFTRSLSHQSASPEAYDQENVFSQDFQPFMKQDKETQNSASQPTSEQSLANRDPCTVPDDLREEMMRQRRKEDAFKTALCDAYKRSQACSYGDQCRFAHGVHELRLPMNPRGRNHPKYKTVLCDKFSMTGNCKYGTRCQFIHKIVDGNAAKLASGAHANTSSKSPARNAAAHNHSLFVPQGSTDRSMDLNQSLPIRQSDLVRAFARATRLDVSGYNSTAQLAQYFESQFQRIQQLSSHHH

[5] = toxicity toward HepG2 liver cells – cell-based, plate reader, cherry-pick, antagonist series, cytotoxicity control, dose response (AID 743416); format: functional
[6] = blockade of melanocortin 4 receptor signaling – cell-based, plate reader, cherry pick, counter-screen for LGR2 antagonist project, dose response (AID 743444); format: functional;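 note: transfected HEK 293 cells stimulated with alpha-MSH peptide; potency of inhibitors of the alpha-MSH evoked signal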
[7] = viability loss in HEK293 cells – cell-based, plate reader, cherry-picked samples, cytotoxicity control, dose response (AID 743446); format: functional
[8] = A549 cell cytotoxicity, dose response, cytotoxicity control, plate reader, cherry-pick, antagonist series (AID 743412); format: functional, cell-based
[9] = blockers of bursicon-stimulated LGR2 cAMP reporter – cell-based, HEK293, CRE-luciferase reporter, cherry pick, set 2, dose response (AID 743343); format: functional;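 note: transfected cells were stimulated with diluted bursicon conditioned medium after compound addition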
[10] = Luminescence Cell-Based Dose Response HTS to Identify Inhibitors of 5'UTR Stem-Loop Driven Prion Protein mRNA Translation in H4 Neuroglioblastoma Cells. [Related pubchem assays: 1827 (Project Summary), 1813 (Primary HTS)]; format: functional
[11] = alpha-synuclein stem-loop luciferase translation blockers – H4 neuroglioma cells, luminescence, confirmation (AID 1988); format: functional, cell-based
[12] = luciferase reporter signal suppression in cells – H4 neuroglioma cells, luminescence, dose response (AID 1990); format: functional, cell-based
[13] = target: Heat shock protein HSP 90-alpha (Homo sapiens, UniProt P07900); format: functional, organism-based
[14] = target: T3, High affinity choline transporter 1 (Homo sapiens, UniProt Q9GZV3); test: human choline transporter blockers, potency – cell-based, 5-point CRC, membrane potential dye, dose response (AID 504840); format: functional
T3 sequence (Q9GZV3 whole entry): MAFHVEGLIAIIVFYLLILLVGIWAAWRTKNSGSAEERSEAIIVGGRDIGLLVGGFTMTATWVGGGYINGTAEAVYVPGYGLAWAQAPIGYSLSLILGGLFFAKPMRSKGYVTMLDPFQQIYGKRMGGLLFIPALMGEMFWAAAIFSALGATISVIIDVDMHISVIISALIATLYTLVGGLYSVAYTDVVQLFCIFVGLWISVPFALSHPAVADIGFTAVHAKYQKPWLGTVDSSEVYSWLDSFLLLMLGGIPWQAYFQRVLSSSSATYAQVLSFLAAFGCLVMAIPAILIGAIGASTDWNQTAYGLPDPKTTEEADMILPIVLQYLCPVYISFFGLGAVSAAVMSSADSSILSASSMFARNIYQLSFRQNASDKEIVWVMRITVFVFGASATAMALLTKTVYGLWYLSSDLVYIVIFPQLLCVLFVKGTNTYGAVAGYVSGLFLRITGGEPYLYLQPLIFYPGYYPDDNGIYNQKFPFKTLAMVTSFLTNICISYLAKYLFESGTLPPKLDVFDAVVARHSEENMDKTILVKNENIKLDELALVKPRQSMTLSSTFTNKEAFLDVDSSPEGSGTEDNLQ

[15] = viability of uninfected HEp-2 cells – cell-based, HTS, cytotoxicity control for RSV inhibitor project, dose response (AID 2410); format: functional; conditions: human respiratory syncytial virus
[16] = Vero E6 cell cytotoxicity, dose response, cytotoxicity control for non-replicating M. tuberculosis project, secondary assay (AID 492998); format: functional, VeroE6; conditions: Vero C1008
[17] = THP-1 cell cytotoxicity, dose response, cytotoxicity control for non-replicating M. tuberculosis project (AID 489025); format: functional
[18] = fluconazole-exposed Candida albicans growth modulators – fluorescence, retest, confirmation (AID 2467); format: functional, cell-based
[19] = microbe, parasite or virus in culture; format: functional; conditions: Mycobacterium tuberculosis
[20] = NIH-3T3 fibroblast cytotoxicity, dose response, cytotoxicity control, cell-based, fluorescence, Alamar Blue, secondary assay (AID 2327); format: functional;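 note: NIH-3T3 mouse fibroblasts cultured with fluconazole at 8 µg/mL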
cells = format: functional
H9c2 = test: cells; format: functional, cell-based; conditions: Rattus norvegicus, H9c2, Myocardium;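 note: confirmatory concentration-response retest of ultra-high-throughput screening hits for modulation of myocardial damage; cell death induced by hydrogen peroxide oxidative stress; compound pretreatment for 60 min then peroxide exposure for 2 h; potency is for protecting the cells against peroxide damage rather than for killing them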
[21] = Luminescence Cell-Based Dose Response HTS to Identify Activators of Luciferase Translation or Activity in H4 […] Cells. [Related pubchem assays: 1829 (Project Summary), 1814 (Primary HTS)]; format: functional
H4 = test: Luminescence Cell-Based Dose Response HTS to Identify Activators of 5'UTR Stem-Loop Driven Prion Protein mRNA Translation in H4 Neuroglioblastoma Cells. [Related pubchem assays: 1829 (Project Summary), 1814 (Primary HTS)]; format: functional; conditions: Homo sapiens
[22] = target: Induced myeloid leukemia cell differentiation protein Mcl-1 (Homo sapiens, UniProt Q07820); format: functional
P388/ADR = test: cells; format: functional; conditions: Mus musculus
P388 = test: cells; format: functional; conditions: Mus musculus
SN12K1 = test: cells; format: functional; conditions: Homo sapiens
Large T antigen = Large T antigen (Simian virus 40, UniProt P03070); format: functional, Betapolyomavirus macacae;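 note: Confirmatory-stage PubChem screen for compounds that inhibit SV40 T antigen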
[23] = P. falciparum Dd2 growth inhibitors, dose response, SYBR Green, cherry-picked samples (AID 1159567); format: functional, cell-based

Large T antigen, sequence (P03070 whole entry): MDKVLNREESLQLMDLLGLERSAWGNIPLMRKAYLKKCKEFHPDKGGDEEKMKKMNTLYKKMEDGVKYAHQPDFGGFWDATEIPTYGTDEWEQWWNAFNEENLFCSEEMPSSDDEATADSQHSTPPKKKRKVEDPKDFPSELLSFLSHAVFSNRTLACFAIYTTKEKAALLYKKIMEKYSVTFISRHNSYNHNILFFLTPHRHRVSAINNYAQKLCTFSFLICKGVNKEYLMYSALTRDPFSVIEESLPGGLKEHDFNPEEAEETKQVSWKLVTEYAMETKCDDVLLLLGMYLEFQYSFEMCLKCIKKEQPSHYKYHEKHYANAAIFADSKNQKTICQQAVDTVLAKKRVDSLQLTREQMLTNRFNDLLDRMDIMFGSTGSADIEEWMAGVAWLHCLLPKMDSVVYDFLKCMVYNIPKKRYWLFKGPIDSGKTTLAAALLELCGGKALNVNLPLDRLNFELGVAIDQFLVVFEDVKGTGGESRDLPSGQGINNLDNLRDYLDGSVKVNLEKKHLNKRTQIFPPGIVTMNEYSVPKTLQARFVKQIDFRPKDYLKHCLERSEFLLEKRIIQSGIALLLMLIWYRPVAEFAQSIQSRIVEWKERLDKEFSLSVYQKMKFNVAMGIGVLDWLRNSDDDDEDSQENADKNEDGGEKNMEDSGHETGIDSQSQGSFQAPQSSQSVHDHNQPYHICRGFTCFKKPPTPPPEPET
Induced myeloid leukemia cell differentiation protein Mcl-1, sequence (Q07820 whole entry): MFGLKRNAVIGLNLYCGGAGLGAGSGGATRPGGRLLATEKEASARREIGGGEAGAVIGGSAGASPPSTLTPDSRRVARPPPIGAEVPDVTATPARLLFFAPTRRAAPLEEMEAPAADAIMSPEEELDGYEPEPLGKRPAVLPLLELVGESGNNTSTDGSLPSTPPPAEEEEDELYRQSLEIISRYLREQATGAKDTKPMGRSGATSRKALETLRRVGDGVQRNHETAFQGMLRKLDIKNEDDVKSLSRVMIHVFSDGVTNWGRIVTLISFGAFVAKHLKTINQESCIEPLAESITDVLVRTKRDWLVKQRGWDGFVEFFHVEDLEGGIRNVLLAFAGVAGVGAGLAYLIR

COc1ccccc1C1=NOC(COc2ccc3c(C)cc(=O)oc3c2)C1 (stereo unspecified)
IC50 [1]: > 80 µM (inactive)
AC50 [2]: 224 nM (active)

O=[N+]([O-])c1ccc(C2=Nc3cc(Cl)ccc3OC2)cc1
EC50 [3]: > 300 µM (inconclusive)
EC50 [4]: 90.7 µM (active)

CCOc1cc(C2C(C#N)=C(N)OC3=C2C(=O)CC(C)(C)C3)cc([N+](=O)[O-])c1O (stereo unspecified)
EC50 [3]: > 300 µM (not active)
EC50 [4]: > 300 µM (not active)

Cc1ccc(C(=O)Nc2ccc3c(c2)OCCO3)c(C)c1
AC50 [5]: > 52 µM (inactive)
AC50 [6]: 2.42 µM (active)
AC50 [7]: > 52 µM (inactive)
AC50 [8]: 44.6 µM (active)
AC50 [9]: 2.74 µM (active)

[O-][n+]1c2c([n+]([O-])c3c1CCCC3)CCCC2
EC50 [10]: > 120 µM (not active)
EC50 [11]: > 120 µM (not active)
EC50 [12]: > 120 µM (not active)

O=C(COc1ccc2c(c1)OCO2)Nc1nccs1
AC50 [5]: > 52 µM (inactive)
AC50 [6]: 10.2 µM (active)
AC50 [7]: 20.6 µM (active)
AC50 [8]: > 52 µM (inactive)
AC50 [9]: 7.13 µM (active)

COc1ccc(C2=CC3=C(Br)C(=O)C(C)(OC(=O)C4CCCC4)C(=O)C3=CO2)cc1 (stereo unspecified)
EC50 [3]: > 300 µM (not active)
EC50 [4]: 43.7 µM (active)
AC50 [13]: 1.68 µM (active)

COc1ccc(OC)c(C2CC(=O)c3c([nH]c(C(=O)OC(C)C)c3C)C2)c1 (stereo unspecified)
IC50 [1]: > 80 µM (inactive)

CCOc1ccccc1NC(=O)CN(c1ccc(OC)cc1)S(=O)(=O)c1c(C)noc1C
IC50 [1]: > 80 µM (inactive)

COc1ccc(OC)c(/C=C2\SC(=S)N(NS(=O)(=O)c3ccccc3)C2=O)c1
IC50 [14]: 8.71 µM (active)

Cn1nnnc1Sc1ncnc2scc(-c3ccccc3C(F)(F)F)c12
AC50 [7]: 27.9 µM (active)
CC50 [15]: 7.66 µM (active)
AC50 [8]: 20.7 µM (active)

O=C(Nc1ccccc1Br)C1CCCN1S(=O)(=O)c1cccc2nsnc12 (stereo unspecified)
CC50 [15]: 33.1 µM (active)
IC50 [14]: 13.8 µM (active)

Cc1noc2ncnc(Sc3ccc(Cl)cc3)c12
CC50 [16]: > 20 µM (active)
CC50 [17]: 21.3 µM (active)
EC50 [18]: > 38 µM (not active)
CC50 [19]: 27.1 µM (active)
EC50 [20]: > 160 µM (inconclusive)
IC50 (cells): 8.82 µM (active)

Cn1c(=O)[nH]c(=O)c2c1nc(N(CCO)Cc1ccccc1)n2CCCc1ccccc1
IC50 (H9c2): 13.8 µM (active)

COc1ccnc(Oc2ccccc2)c1C(=O)N=CNOCc1ccc(F)cc1Cl
IC50 (H9c2): > 79 µM (inactive)

Cc1cc(C)c2nc(-n3nc(C)cc3N)cc(C)c2c1
EC50 [21]: 32.5 µM (active)
EC50 (H4): 1.71 µM (active)

O=C(CSc1nc2ccccc2s1)Nc1cc(S(=O)(=O)N2CCOCC2)ccc1O
IC50 [22]: 1.75 µM (active)

CCOc1ccccc1/C=C(/NC(=O)c1ccccc1)C(=O)N(CC)CC
EC50 [10]: > 120 µM (not active)
EC50 [11]: > 120 µM (not active)
EC50 [12]: > 120 µM (not active)

O=C(NC1CCCCC1)C(c1ccc2ncccc2c1)N(Cc1ccc2c(c1)OCO2)C(=O)c1ccc2c(c1)OCCO2 (stereo unspecified)
IC50 [14]: 15.1 µM (active)

CCN1CCN(Cc2ccccc2NC(=O)Nc2ccc(C)cc2)CC1
EC50 [21]: > 120 µM (not active)
EC50 (H4): 7.09 µM (active)

O=C(Nc1ccccc1)Oc1cccc2cccnc12
AC50 [13]: 3.44 µM (active)

N=C(Cc1ccc(Cl)cc1Cl)NOC(=O)c1ccc(Br)o1
AC50 [13]: 3.11 µM (active)

COc1ccc(CCNC(=O)CN(c2ccc(OC)c(OC)c2)S(C)(=O)=O)cc1
IC50 [22]: 26 µM (not active)

CCCCCN1C=CC(=C2C(=O)c3ccccc3C2=O)C=C1
IC50 [1]: > 80 µM (inactive)

COc1cc([C@@H]2c3cc4c(cc3[C@@H](OC3OC5COC(C)OC5C(O)C3O)[C@H]3COC(=O)[C@H]23)OCO4)cc(OC)c1O (stereo partly specified)
GI50 (P388/ADR): 58.6 µM (inactive)
GI50 (P388): 0.275 µM (active)
GI50 (SN12K1): 1.17 µM (inactive)

Cc1sc2nc(CSCC(=O)N(C)CC(=O)Nc3ccc(F)cc3)nc(O)c2c1C
IC50 (H9c2): 7.7 µM (active)

C=CC[C@@H](CC(=O)NCCO)C(=O)NC[C@H](OC(=O)[C@@H](CC=C)Cc1ccc(F)cc1)c1ccccc1
IC50 (H9c2): > 79 µM (inactive)

CCC(C)C1NC(=O)CNC(=O)C2Cc3c([nH]c4cc(O)ccc34)[S+]([O-])CC(NC(=O)CNC1=O)C(=O)NC(CC(=O)O)C(=O)N1CC(O)CC1C(=O)NC(C(C)C(O)CO)C(=O)N2 (stereo unspecified)
GI50 (P388/ADR): 2.77 µM (inactive)
GI50 (P388): 2.47 µM (inactive)
GI50 (SN12K1): 2.32 µM (inactive)

COc1ccc(CC(N)=O)cc1OC
GI50 (P388/ADR): > 1250 µM (inactive)
GI50 (P388): > 1250 µM (inactive)
GI50 (SN12K1): > 1250 µM (inactive)

CN(CCO)/N=N/c1n[nH]cc1C(N)=O
GI50 (P388/ADR): > 100 µM (inactive)
GI50 (P388): > 100 µM (inactive)
GI50 (SN12K1): > 100 µM (inactive)

O=[N+]([O-])c1cccc2c1[nH]c1c(-c3ccccc3)nccc12
GI50 (P388/ADR): 2.52 µM (inactive)
GI50 (P388): 2.52 µM (inactive)
GI50 (SN12K1): 1.72 µM (inactive)

CN(C)CCNC(=O)c1cccc2[nH]c(-c3ccccn3)nc12
GI50 (P388/ADR): 21.3 µM (inactive)
GI50 (P388): 14.5 µM (inactive)
GI50 (SN12K1): 25.2 µM (inactive)

OCC#CCNCl
GI50 (P388/ADR): > 46 µM (inactive)
GI50 (P388): 16.1 µM (inactive)
GI50 (SN12K1): > 100 µM (inactive)

O=C(/C=C/c1ccccc1Cl)c1ccc(O)cc1
AC50 [13]: 4.46 µM (active)

COC(=O)N/N=C/c1ccc([N+](=O)[O-])s1
CC50 [16]: > 20 µM (active)
IC50 (cells): 30.5 µM (active)

COc1cc(/C=N/NC(=O)CCn2nc(C)cc2C)ccc1O
IC50 (Large T antigen): 15.6 µM (active)

Cc1ccc(-c2ccccc2[C@H]2[C@@H](C#N)N(C(=O)NC3CCCC3)[C@H]2CO)cc1
AC50 [23]: 7.19 µM (active)

COc1ccccc1NC(=O)N1CC[C@H]2[C@@H]1c1cc(C#Cc3ccc(F)cc3)ccc1N(C)[C@H]2CO
AC50 [23]: 4.14 µM (active)

O=C(N/N=C/c1c[nH]c2ccccc12)c1ccc(O)c(O)c1
IC50 (Large T antigen): 9.13 µM (active)
